For experiment [1], the target named is T1, Melanocortin receptor 4 (Homo sapiens, UniProt P32245). Nature of the experiment: Binding affinity to human MC4R.
For experiment [2], the target named is T1, Melanocortin receptor 4. The experiment in a line: […] at human MC4R assessed as stimulation of cAMP production. More on the design: concentration or dose not given beside the values. It is filed as functional. (In general: Changes in cAMP serve as a functional read-out for many G protein-coupled receptors.)
Another experiment has as its target Melanocortin receptor 5 (Homo sapiens, UniProt P33032). The experiment in a line: […] at human MC5R assessed as stimulation of cAMP production. The experiment is classed as functional. The arrangement: concentration or dose not given beside the values.
A further experiment deals with Melanocortin receptor 3 (Homo sapiens, UniProt P41968). Nature of the experiment: […] at human MC3R assessed as stimulation of cAMP production. The experiment is classed as functional. The arrangement: concentration or dose not given beside the values.
Chain of Melanocortin receptor 3 (P41968 whole entry): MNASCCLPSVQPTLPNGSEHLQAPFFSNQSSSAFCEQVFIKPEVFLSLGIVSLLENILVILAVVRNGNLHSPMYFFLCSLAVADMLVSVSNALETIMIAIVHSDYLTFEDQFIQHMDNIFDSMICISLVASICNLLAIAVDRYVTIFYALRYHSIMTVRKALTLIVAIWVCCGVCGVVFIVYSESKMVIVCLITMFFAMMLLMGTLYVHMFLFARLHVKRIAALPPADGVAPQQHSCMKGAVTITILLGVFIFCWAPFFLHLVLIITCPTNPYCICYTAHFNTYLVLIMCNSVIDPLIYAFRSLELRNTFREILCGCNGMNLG
The species entered for experiment [3] is Homo sapiens. The experiment in a line: Ratio of EC50 for human MC5R to EC50 for human MC4R.
For experiment [4], the species on record is Homo sapiens. Nature of the experiment: Ratio of EC50 for human MC3R to EC50 for human MC4R.

pEC50, pIC50: −log10 of the molar value.

Experimental findings from ChEMBL document CHEMBL1139816, “Melanocortin subtype 4 receptor agonists: structure-activity relationships about the 4-alkyl piperidine core” (Bioorg Med Chem Lett, 2007) are described below.

A word on the pIC50: it is −log10 of the IC50, conventionally taken in molar units. For orientation: pEC50 means −log10 of the EC50, conventionally taken in molar units.

Chain of Melanocortin receptor 5 (P33032 whole entry): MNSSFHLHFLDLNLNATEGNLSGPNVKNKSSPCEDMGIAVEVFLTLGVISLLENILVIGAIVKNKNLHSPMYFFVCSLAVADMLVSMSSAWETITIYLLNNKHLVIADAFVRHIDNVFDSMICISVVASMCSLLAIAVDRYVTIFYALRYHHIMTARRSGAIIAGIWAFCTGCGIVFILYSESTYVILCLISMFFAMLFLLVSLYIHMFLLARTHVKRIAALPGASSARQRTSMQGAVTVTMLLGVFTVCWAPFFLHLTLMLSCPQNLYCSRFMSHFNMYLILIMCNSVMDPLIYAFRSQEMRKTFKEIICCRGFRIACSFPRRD
T1 sequence (P32245 whole entry): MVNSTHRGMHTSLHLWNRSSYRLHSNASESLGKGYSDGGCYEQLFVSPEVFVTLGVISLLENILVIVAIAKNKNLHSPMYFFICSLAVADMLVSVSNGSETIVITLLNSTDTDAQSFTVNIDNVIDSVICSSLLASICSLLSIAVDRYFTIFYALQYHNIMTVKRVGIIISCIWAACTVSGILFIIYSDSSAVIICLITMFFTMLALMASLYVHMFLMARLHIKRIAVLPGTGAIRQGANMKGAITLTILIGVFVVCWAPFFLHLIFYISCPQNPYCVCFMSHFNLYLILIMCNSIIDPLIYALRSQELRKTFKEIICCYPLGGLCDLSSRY

Molecule `N#CCC1(C2CCCC2)CCN(C(=O)[C@H](Cc2ccc(Cl)cc2)NC(=O)[C@H]2Cc3ccccc3CN2)CC1` had a pIC50 on Melanocortin receptor 4 [1] of 7.79. Further, the results for the Activity on Melanocortin receptor 4 [2] and at Melanocortin receptor 5 were 52% and 40%, respectively. For the same molecule, the values for the negative logarithm of the EC50 (pEC50) at Melanocortin receptor 4 [2] and at Melanocortin receptor 5 were 6.71 and 6.20, respectively.
At Melanocortin receptor 4 [1], `CCC(C)(C)C1(C(=O)NC(C)(C)C)CCN(C(=O)[C@H](Cc2ccc(F)cc2)NC(=O)[C@H]2CN(C)CCN2)CC1` showed a negative logarithm of the IC50 (pIC50) of 7.18. In addition, on Melanocortin receptor 4 [2], the Activity worked out at 55% and the pEC50 is 6.82.
As to `CC(C)CC1(Cc2nnnn2C)CCN(C(=O)[C@H](Cc2ccc(Cl)cc2)NC(=O)[C@H]2Cc3ccccc3CN2)CC1`, the pIC50 on Melanocortin receptor 4 [1] is 8.22. Also, the Activity on Melanocortin receptor 4 [2] worked out at 98%; at Melanocortin receptor 3, 31%; at Melanocortin receptor 5, 46%. Further, the pEC50 is 7.90 on Melanocortin receptor 4 [2], 6.17 on Melanocortin receptor 3 and 6.18 on Melanocortin receptor 5.
The molecule `Cn1nnnc1CC1(Cc2ccccc2)CCN(C(=O)[C@H](Cc2ccc(Cl)cc2)NC(=O)[C@H]2Cc3ccccc3CN2)CC1` showed a pIC50 on Melanocortin receptor 4 [1] of 7.28. The Activity at Melanocortin receptor 4 [2] was 70%; on Melanocortin receptor 3 it was 17%; at Melanocortin receptor 5, 20%. The results for the negative logarithm of the EC50 (pEC50) on Melanocortin receptor 4 [2], at Melanocortin receptor 3 and on Melanocortin receptor 5 were 6.95, 6.08 and 5.75, respectively.
Turning to `CN1CCN[C@@H](C(=O)N[C@@H](Cc2ccc(F)cc2)C(=O)N2CCC(C(=O)NC(C)(C)C)(C3CCCCC3)CC2)C1`, the pIC50 at Melanocortin receptor 4 [1] is 7.87. Further, at Melanocortin receptor 4 [2], the Activity is 98% and the pEC50 was 8.19. At Melanocortin receptor 5, the Activity stood at 31% and the pEC50 was 6.01.
`CC1CCC(C2(C(=O)NC(C)(C)C)CCN(C(=O)[C@H](Cc3ccc(F)cc3)NC(=O)[C@H]3CN(C)CCN3)CC2)CC1` (some centres undefined): at Melanocortin receptor 4 [1], the pIC50 is 8.17. Also, the Activity amounted to 81% on Melanocortin receptor 4 [2], 37% at Melanocortin receptor 3 and 27% at Melanocortin receptor 5. Moreover, the negative logarithm of the EC50 (pEC50) at Melanocortin receptor 4 [2] was 8.00; at Melanocortin receptor 3, 6.64; on Melanocortin receptor 5, 6.05.
At Melanocortin receptor 4 [1], `CC1(CC#N)CCN(C(=O)[C@H](Cc2ccc(Cl)cc2)NC(=O)[C@H]2Cc3ccccc3CN2)CC1` had a pIC50 of 5.83.
The molecule `N#CCC1(C2CCCCC2)CCN(C(=O)[C@H](Cc2ccc(Cl)cc2)NC(=O)[C@H]2Cc3ccccc3CN2)CC1` had a pIC50 at Melanocortin receptor 4 [1] of 8.17. Moreover, on Melanocortin receptor 4 [2], the Activity turned out to be 51% and the negative-log EC50 (pEC50) is 6.72. At Melanocortin receptor 5, the Activity was found to be 42% and the pEC50 is 6.19. Further, the Selectivity ratio in the experiment listed under Homo sapiens [3] worked out at 3.
Regarding `Cn1nnnc1CC1(C2CCCCC2)CCN(C(=O)[C@H](Cc2ccc(Cl)cc2)NC(=O)[C@H]2Cc3ccccc3CN2)CC1`, the negative-log IC50 (pIC50) at Melanocortin receptor 4 [1] was 9.07. Also, the values for the Activity on Melanocortin receptor 4 [2], at Melanocortin receptor 3 and at Melanocortin receptor 5 were 96%, 50% and 57%, respectively. The pEC50 on Melanocortin receptor 4 [2] is 8.49; on Melanocortin receptor 3, 6.94; at Melanocortin receptor 5 it was 6.65. For the same molecule, the results for the Selectivity ratio in the experiment listed under Homo sapiens [3] and in the experiment filed under Homo sapiens [4] were 69 and 36, respectively.
On Melanocortin receptor 4 [1], `CN1CCN[C@@H](C(=O)N[C@@H](Cc2ccc(F)cc2)C(=O)N2CCC(C(=O)NC(C)(C)C)(C3CCC(C)(C)CC3)CC2)C1` showed a negative logarithm of the IC50 (pIC50) of 6.79. For the same molecule, the Activity was found to be 87% at Melanocortin receptor 4 [2], 42% on Melanocortin receptor 3 and 19% on Melanocortin receptor 5. Moreover, the pEC50 at Melanocortin receptor 4 [2] is 6.26; on Melanocortin receptor 3, 6.62; at Melanocortin receptor 5, 5.95.
On to `CN1CCN[C@@H](C(=O)N[C@@H](Cc2ccc(F)cc2)C(=O)N2CCC(C(=O)NC(C)(C)C)(C3(C)CCCCC3)CC2)C1`, for which the negative logarithm of the IC50 (pIC50) at Melanocortin receptor 4 [1] was 7.44. At Melanocortin receptor 4 [2], the Activity was determined as 79% and the pEC50 is 7.24. In addition, at Melanocortin receptor 5, the Activity was determined as 56% and the pEC50 is 5.70.
On Melanocortin receptor 4 [1], `Cn1nnnc1CC1(c2ccc(Cl)cc2)CCN(C(=O)[C@H](Cc2ccc(Cl)cc2)NC(=O)[C@H]2Cc3ccccc3CN2)CC1` had a negative-log IC50 (pIC50) of 6.95. In addition, the Activity came out at 100% on Melanocortin receptor 4 [2], 92% at Melanocortin receptor 3 and 17% on Melanocortin receptor 5. Further, the pEC50 on Melanocortin receptor 4 [2] was 8.31; on Melanocortin receptor 3 it was 6.36; at Melanocortin receptor 5, 6.28.
As to `CN1CCN[C@@H](C(=O)N[C@@H](Cc2ccc(F)cc2)C(=O)N2CCC(CC3CC3)(C(=O)NC(C)(C)C)CC2)C1`, the pIC50 on Melanocortin receptor 4 [1] is 6.08. Besides, at Melanocortin receptor 4 [2], the Activity worked out at 54% and the pEC50 is 5.66.
`CCC1(CC#N)CCN(C(=O)[C@H](Cc2ccc(Cl)cc2)NC(=O)[C@H]2Cc3ccccc3CN2)CC1`: the negative-log IC50 (pIC50) on Melanocortin receptor 4 [1] is 6.12.
`CCCCC1(CC#N)CCN(C(=O)[C@H](Cc2ccc(Cl)cc2)NC(=O)[C@H]2Cc3ccccc3CN2)CC1` gave a negative logarithm of the IC50 (pIC50) at Melanocortin receptor 4 [1] of 7.65. Besides, the results for the Activity on Melanocortin receptor 4 [2] and on Melanocortin receptor 5 were 40% and 21%, respectively. Moreover, the negative-log EC50 (pEC50) on Melanocortin receptor 4 [2] was 6.55; at Melanocortin receptor 5 it was 6.32.
In turn, `CN1CCN[C@@H](C(=O)N[C@@H](Cc2ccc(F)cc2)C(=O)N2CCC(CC3CCC3)(C(=O)NC(C)(C)C)CC2)C1` gave a negative-log IC50 (pIC50) on Melanocortin receptor 4 [1] of 6.75. In addition, at Melanocortin receptor 4 [2], the Activity stood at 55% and the negative logarithm of the EC50 (pEC50) was 6.25.
`N#CCC1(C2CC2)CCN(C(=O)[C@H](Cc2ccc(Cl)cc2)NC(=O)[C@H]2Cc3ccccc3CN2)CC1`: on Melanocortin receptor 4 [1], the pIC50 is 6.76.
Take `Cn1nnnc1CC1(C2CCOCC2)CCN(C(=O)[C@H](Cc2ccc(Cl)cc2)NC(=O)[C@H]2Cc3ccccc3CN2)CC1`: the negative logarithm of the IC50 (pIC50) on Melanocortin receptor 4 [1] was 7.49. The Activity at Melanocortin receptor 4 [2] was found to be 90%; on Melanocortin receptor 3 it was 18%; on Melanocortin receptor 5, 18%. Besides, the negative logarithm of the EC50 (pEC50) on Melanocortin receptor 4 [2] was 6.80; at Melanocortin receptor 3, 5.53; at Melanocortin receptor 5, 5.53.
On Melanocortin receptor 4 [1], `CC(C)C1(CC#N)CCN(C(=O)[C@H](Cc2ccc(Cl)cc2)NC(=O)[C@H]2Cc3ccccc3CN2)CC1` gave a negative logarithm of the IC50 (pIC50) of 7.20. Moreover, at Melanocortin receptor 4 [2], the Activity is 32% and the pEC50 is 6.08. Besides, on Melanocortin receptor 5, the Activity was determined as 20% and the pEC50 is 5.96.
In turn, `CCC(C)C1(Cc2nnnn2C)CCN(C(=O)[C@H](Cc2ccc(Cl)cc2)NC(=O)[C@H]2Cc3ccccc3CN2)CC1` (some centres undefined) showed a negative logarithm of the IC50 (pIC50) on Melanocortin receptor 4 [1] of 8.43. The Activity is 107% at Melanocortin receptor 4 [2], 33% on Melanocortin receptor 3 and 39% at Melanocortin receptor 5. Also, the figures for the pEC50 on Melanocortin receptor 4 [2], on Melanocortin receptor 3 and at Melanocortin receptor 5 were 8.41, 6.58 and 6.60, respectively.
As for `CN1CCN[C@@H](C(=O)N[C@@H](Cc2ccc(F)cc2)C(=O)N2CCC(C(=O)NC(C)(C)C)(C3C=CCCC3)CC2)C1` (some centres undefined), the negative logarithm of the IC50 (pIC50) at Melanocortin receptor 4 [1] is 7.19. Further, on Melanocortin receptor 4 [2], the Activity came out at 76% and the pEC50 is 7.07.
In turn, `Cn1nnnc1CC1(CC(C)(C)C)CCN(C(=O)[C@H](Cc2ccc(Cl)cc2)NC(=O)[C@H]2Cc3ccccc3CN2)CC1` had a pIC50 on Melanocortin receptor 4 [1] of 8.44. At Melanocortin receptor 4 [2], the Activity turned out to be 76% and the pEC50 is 7.68. Moreover, at Melanocortin receptor 5, the Activity was 27% and the pEC50 was 6.42.
At Melanocortin receptor 4 [1], `CN1CCN[C@@H](C(=O)N[C@@H](Cc2ccc(F)cc2)C(=O)N2CCC(C(=O)NC(C)(C)C)(C3C=CC(=O)CC3)CC2)C1` (some centres undefined) had a pIC50 of 6.46. Moreover, on Melanocortin receptor 4 [2], the Activity stood at 59% and the pEC50 is 5.75.
Molecule `CCCCCCC1(Cc2nnnn2C)CCN(C(=O)[C@H](Cc2ccc(Cl)cc2)NC(=O)[C@H]2Cc3ccccc3CN2)CC1` showed a negative-log IC50 (pIC50) on Melanocortin receptor 4 [1] of 8.40. The Activity at Melanocortin receptor 4 [2] was 84%; on Melanocortin receptor 3 it was 34%; on Melanocortin receptor 5 it was 15%. Besides, the negative-log EC50 (pEC50) at Melanocortin receptor 4 [2] was 7.54; at Melanocortin receptor 3, 6.00; at Melanocortin receptor 5, 6.16.
